Measured values published in patent US9232799B2, “N-[(het)arylethyl)] pyrazole(thio)carboxamides and their heterosubstituted analogues” (BAYER INTELLECTUAL PROPERTY GMBH, priority 2010, dated 2016).

Key:
Alternaria solani = test: In vivo preventive test on Alternaria solani (tomato); details: 500 ppm of active ingredient, evaluated 7 days after inoculation
From the text: One day after this treatment, the plants are inoculated with an aqueous spore suspension of Alternaria solani.

Uromyces appendiculatus = test: In vivo preventive test on Uromyces appendiculatus (beans); details: 100 ppm of active ingredient, evaluated 10 days after inoculation
[1] = tested on: Blumeria graminis f.sp. hordei; test: In vivo preventive test on Blumeria graminis (barley); details: 500 ppm of active ingredient, evaluated 7 days after inoculation
From the text: (§1) To test for preventive activity, young plants are sprayed with the preparation of active compound or active compound combination at the stated rate of application.

Sphaerotheca fuliginea = test: In vivo preventive test on Sphaerotheca fuliginea (cucumber); details: 500 ppm of active ingredient, evaluated 7 days after inoculation
From the text: One day after this treatment, the plants are inoculated with an aqueous spore suspension of Sphaerotheca fuliginea.

Pyrenophora teres = test: In vivo preventive test on Pyrenophora teres (barley); details: 500 ppm of active ingredient, evaluated 7-9 days after inoculation
From the text: One day after this treatment, the plants are inoculated with an aqueous spore suspension of Pyrenophora teres.

Fusarium graminearum = test: microbe, parasite or virus in culture; type: cell-based; details: for inhibition at 50 µM: Fusarium graminearum, 168 h, read-out: % Inhibition of fungal growth at 50 μM
aflatoxines production = test: microbe, parasite or virus in culture; type: cell-based, Aspergillus parasiticus; details: for inhibition at 50 µM: Aspergillus parasiticus, 168 h, read-out: % Inhibition of Aflatoxin at 50 μM
Septoria tritici = test: In vivo preventive test on Septoria tritici (wheat); details: 500 ppm of active ingredient, evaluated 21 days after inoculation
From the text: as §1

[2] = logP by HPLC on reversed-phase column (C 18), EEC Directive 79/831 Annex V.A8; type: physicochemical
Method: In table 1, the logP values were determined in accordance with EEC Directive 79/831 Annex V.A8 by HPLC (High Performance Liquid Chromatography) on a reversed-phase column (C 18), using the method described below: Temperature: 40° C.; […]

Venturia inaequalis = test: In vivo preventive test on Venturia inaequalis (apple scab); details: 100 ppm of active ingredient, evaluated 10 days after inoculation
[3] = tested on: Fusarium nivale (var. majus); test: In vivo preventive test on Fusarium nivale (wheat); details: 500 ppm of active ingredient, evaluated 5 days after inoculation
From the text: as §1

Leptosphaeria nodorum = test: In vivo preventive test on Leptosphaeria nodorum (wheat); details: 500 ppm of active ingredient, evaluated 7-9 days after inoculation
From the text: One day after this treatment, the plants are inoculated with an aqueous spore suspension of Leptosphaeria nodorum.

Botrytis cinerea = test: In vivo preventive test on Botrytis cinerea (beans); details: preventive, beans, lesion size 2 days after inoculation; for pest or weed control at 500 ppm: 500 ppm of active ingredient
From the text: To test for preventive activity, young plants are sprayed with the preparation of active compound. After the spray coating has dried on, 2 small pieces of agar covered with growth of Botrytis cinerea are placed on each leaf.

Puccinia triticina = test: In vivo preventive test on Puccinia triticina (wheat); details: dose 500 ppm of active ingredient, evaluated 8 days after inoculation
[4] = Botrytis cinerea, 48 h, read-out: Efficacy

SMILES | Efficacy (Alternaria solani) | Efficacy (Uromyces appendiculatus) | Efficacy [1] | Efficacy (Sphaerotheca fuliginea) | Efficacy (Pyrenophora teres) | % Inhibition of fungal growth at 50 μM (Fusarium graminearum) | % Inhibition of Aflatoxin at 50 μM (aflatoxines production) | Efficacy (Septoria tritici) | logP [2] | Efficacy (Venturia inaequalis) | Efficacy [3] | Efficacy (Leptosphaeria nodorum) | Efficacy (Botrytis cinerea; 100 ppm of active ingredient) | Efficacy (Puccinia triticina) | inhibition at 50 µM (Fusarium graminearum) | inhibition at 50 µM (aflatoxines production) | chromatographic logP [2] | pest or weed control at 100 ppm (Botrytis cinerea; Botrytis cinerea, 48 h, 100 ppm of active ingredient, read-out: Efficacy) | pest or weed control at 500 ppm (Botrytis cinerea; [4])
Cn1nc(C(F)F)c(C(=O)NCCc2ccc(Cl)cc2Cl)c1F [Example 65] | 90% | 100% | 95% | 79% | 100% | 100% | 100% | 100% | 3.09 | 100% |  |  |  |  |  |  |  |  | 
Cn1nc(C(F)F)c(C(=O)NCC(C)(C)c2ccc(Cl)cc2Cl)c1Cl [Example 88] | 100% |  | 80% | 94% | 100% | 86% | 100% | 90% | 4.03 |  | 88% | 90% |  |  |  |  |  |  | 
Cn1nc(C(F)F)c(C(=O)N(CC(F)(F)c2ccccc2Cl)C2CC2)c1F [Example 44] | 100% |  | 100% | 100% | 100% | 100% | 100% | 100% | 3.39 | 100% | 100% | 100% | 99% |  |  |  |  |  | 
Cn1nc(C(F)F)c(C(=O)N(CC(F)(F)c2cc(Cl)ccc2Cl)C2CC2)c1F [Example 99] | 95% |  | 89% | 98% | 100% |  |  | 100% | 3.85 |  | 92% | 95% |  |  |  |  |  |  | 
CN(C[Si](C)(C)c1ccccc1)C(=O)c1c(C(F)F)nn(C)c1F [Example 230] | 100% |  | 100% |  | 100% | 100% | 100% | 100% | 3.23 |  | 83% | 80% |  | 95% |  |  |  |  | 
CC(Cc1ncc(C(F)(F)F)cc1Cl)N(C(=O)c1c(C(F)F)nn(C)c1Cl)C1CC1 (stereo not drawn) [Example 189] | 100% |  | 100% | 95% | 95% | 90% | 100% | 70% | 3.96 |  | 100% |  |  | 80% |  |  |  |  | 
Cn1nc(C(F)F)c(C(=O)NCCc2ccc(Cl)cc2Cl)c1Cl [Example 66] |  | 98% | 90% |  |  | 100% | 100% | 71% | 3.31 | 100% | 100% |  |  |  |  |  |  |  | 
COC(CN(C(=O)c1c(C(F)F)nn(C)c1F)C1CC1)c1ccc(Cl)cc1Cl (stereo not drawn) [Example 80] | 95% | 80% |  | 100% | 100% | 100% | 100% |  |  | 100% |  | 100% | 100% | 80% |  |  |  |  | 
Cn1nc(C(F)F)c(C(=O)N(C2CC2)C2CCCC2c2ccccc2Cl)c1F (stereo not drawn) [Example 210] | 100% |  | 100% | 100% | 100% | 100% | 100% | 100% | 4.31 | 100% | 86% | 90% | 100% |  |  |  |  |  | 
CC(Cc1ccc(Oc2ccccc2)cc1)NC(=O)c1c(C(F)F)nn(C)c1F (stereo not drawn) [Example 151] | 95% |  | 100% | 93% | 100% | 94% | 100% | 100% | 3.63 |  | 100% | 70% |  |  |  |  |  |  | 
Cn1nc(C(F)F)c(C(=O)NC(C)(C)C(=O)c2ncc(C(F)(F)F)cc2Cl)c1F [Example 194, N-{1-[3-chloro-5-(trifluoromethyl)pyridin-2-yl]-2-methyl-1-oxopropan-2-yl}-3-(difluoromethyl)-5-fluoro-1-methyl-1H-pyrazole-4-carboxamide] | 100% |  | 100% | 98% | 100% |  |  | 100% |  |  | 100% | 90% |  |  | 100% | 100% | 3.23 |  | 
CC(Cc1ncc(C(F)(F)F)cc1Cl)NC(=O)c1c(C(F)F)nn(C)c1F (stereo not drawn) [Example 190, N-{1-[3-chloro-5-(trifluoromethyl)pyridin-2-yl]propan-2-yl}-3-(difluoromethyl)-5-fluoro-1-methyl-1H-pyrazole-4-carboxamide] | 100% |  | 100% | 100% | 100% |  |  | 100% |  | 100% | 88% |  |  |  | 100% | 100% | 3.08 | 96% | 100%
Cc1nn(C)c(F)c1C(=O)N(C(C)Cc1ncc(C(F)(F)F)cc1Cl)C1CC1 (stereo not drawn) [compound CMP5, N-{1-[3-chloro-5-(trifluoromethyl)pyridin-2-yl]propan-2-yl}-N-cyclopropyl-5-fluoro-1,3-dimethyl-1H-pyrazole-4-carboxamide, reference compound] |  |  |  |  |  |  |  |  |  |  |  |  |  | 11% |  |  |  |  | 0%
Cn1nc(C(F)F)c(C(=O)NC2CC2c2ccc(Cl)cc2)c1F (stereo not drawn) [Example 224] | 95% | 100% |  | 84% | 100% | 100% | 100% |  | 2.61 | 100% |  | 80% |  |  |  |  |  |  | 
Cn1nc(C(F)F)c(C(=O)N(CC(F)(F)c2ccc(Cl)cc2Cl)C2CC2)c1F [Example 86] | 100% |  | 100% | 100% | 100% | 98% | 100% | 80% | 3.94 | 100% | 93% | 100% | 100% |  |  |  |  |  | 
Cc1cc(Br)ccc1C(=O)C(C)(C)NC(=O)c1c(C(F)F)nn(C)c1F [Example 133] | 95% |  | 100% | 100% | 100% | 100% | 100% | 80% | 3.37 | 100% | 100% | 100% | 100% |  |  |  |  |  | 
Cn1nc(C(F)F)c(C(=O)NC(C)(C)C(=O)c2ccc3ccccc3c2)c1F [Example 160] | 95% |  | 70% | 95% | 100% | 100% | 100% | 70% | 2.92 | 100% | 83% | 70% | 100% |  |  |  |  |  | 
Cn1nc(C(F)F)c(C(=O)NC[Si](C)(C)c2ccccc2Cl)c1F [Example 233] | 95% |  |  |  | 100% | 76% | 88% | 90% | 3.48 |  |  | 80% |  | 95% |  |  |  |  | 
CC(Cc1ccc(Cl)cc1Cl)NC(=O)c1c(C(F)F)nn(C)c1F (stereo not drawn) [Example 67] | 100% |  |  | 100% | 100% | 100% | 100% |  | 3.46 | 100% |  | 90% | 89% |  |  |  |  |  | 
